Experimental data reported in PubChem BioAssay (NCI).
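Briefly, cells in 96-well plates were exposed to five compound concentrations for 48 h, and endpoints were estimated by linear interpolation. TGI denotes the concentration required for complete inhibition of growth.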

Experiments:
Assay in all cases: NCI-60 cell line screen, 48 h
786-0 renal = system: 786-0 renal
A549 NSCLC = system: A549 NSCLC
ACHN renal = system: ACHN renal
CCRF-CEM leukemia = system: CCRF-CEM leukemia
COLO 205 colon = system: COLO 205 colon
DLD-1 colon = system: DLD-1 colon
DMS 114 small cell lung = system: DMS 114 small cell lung
DMS 273 small cell lung = system: DMS 273 small cell lung
EKVX NSCLC = system: EKVX NSCLC
HCC-2998 colon = system: HCC-2998 colon
HCT-116 colon = system: HCT-116 colon
HCT-15 colon = system: HCT-15 colon
HL-60(TB) leukemia = system: HL-60(TB) leukemia
HOP-18 NSCLC = system: HOP-18 NSCLC
HOP-62 NSCLC = system: HOP-62 NSCLC
HOP-92 NSCLC = system: HOP-92 NSCLC
HT29 colon = system: HT29 colon
IGROV1 ovarian = system: IGROV1 ovarian
K-562 leukemia = system: K-562 leukemia
KM12 colon = system: KM12 colon
KM20L2 colon = system: KM20L2 colon
LXFL 529 NSCLC = system: LXFL 529 NSCLC
M14 melanoma = system: M14 melanoma
M19-MEL melanoma = system: M19-MEL melanoma
MALME-3M melanoma = system: MALME-3M melanoma
MOLT-4 leukemia = system: MOLT-4 leukemia
NCI-H226 lung = system: NCI-H226 lung
NCI-H23 lung = system: NCI-H23 lung
NCI-H460 lung = system: NCI-H460 lung
NCI-H522 lung = system: NCI-H522 lung
OVCAR-3 ovarian = system: OVCAR-3 ovarian
OVCAR-4 ovarian = system: OVCAR-4 ovarian
OVCAR-5 ovarian = system: OVCAR-5 ovarian
OVCAR-8 ovarian = system: OVCAR-8 ovarian
RPMI-8226 leukemia = system: RPMI-8226 leukemia
RXF 393 renal = system: RXF 393 renal
RXF-631 renal = system: RXF-631 renal
SF-268 CNS = system: SF-268 CNS
SF-295 CNS = system: SF-295 CNS
SF-539 CNS = system: SF-539 CNS
SK-MEL-2 melanoma = system: SK-MEL-2 melanoma
SK-MEL-28 melanoma = system: SK-MEL-28 melanoma
SK-MEL-5 melanoma = system: SK-MEL-5 melanoma
SK-OV-3 ovarian = system: SK-OV-3 ovarian
SN12C renal = system: SN12C renal
SNB-19 CNS = system: SNB-19 CNS
SNB-75 CNS = system: SNB-75 CNS
SNB-78 CNS = system: SNB-78 CNS
SR leukemia = system: SR leukemia
SW-620 colon = system: SW-620 colon
U251 CNS = system: U251 CNS
UACC-257 melanoma = system: UACC-257 melanoma
UACC-62 melanoma = system: UACC-62 melanoma
UO-31 renal = system: UO-31 renal
CAKI-1 renal = system: CAKI-1 renal
TK-10 renal = system: TK-10 renal
A498 renal = system: A498 renal
LOX IMVI melanoma = system: LOX IMVI melanoma
XF 498 CNS = system: XF 498 CNS

Compound: O=C1c2ccccc2C(=O)N1CCn1nc(-c2ccccc2)cc(-c2ccccc2)c1=O
- TGI (786-0 renal): > 100 µM
- TGI (A549 NSCLC): > 100 µM
- TGI (ACHN renal): > 100 µM
- TGI (CCRF-CEM leukemia): > 100 µM
- TGI (COLO 205 colon): > 100 µM
- TGI (DLD-1 colon): > 100 µM
- TGI (DMS 114 small cell lung): > 100 µM
- TGI (DMS 273 small cell lung): > 100 µM
- TGI (EKVX NSCLC): > 100 µM
- TGI (HCC-2998 colon): > 100 µM
- TGI (HCT-116 colon): > 100 µM
- TGI (HCT-15 colon): > 100 µM
- TGI (HL-60(TB) leukemia): 39 µM
- TGI (HOP-18 NSCLC): > 100 µM
- TGI (HOP-62 NSCLC): > 100 µM
- TGI (HOP-92 NSCLC): 96.8 µM
- TGI (HT29 colon): > 100 µM
- TGI (IGROV1 ovarian): > 100 µM
- TGI (K-562 leukemia): > 100 µM
- TGI (KM12 colon): > 100 µM
- TGI (KM20L2 colon): > 100 µM
- TGI (LXFL 529 NSCLC): > 100 µM
- TGI (M14 melanoma): > 100 µM
- TGI (M19-MEL melanoma): > 100 µM
- TGI (MALME-3M melanoma): > 100 µM
- TGI (MOLT-4 leukemia): > 100 µM
- TGI (NCI-H226 lung): > 100 µM
- TGI (NCI-H23 lung): > 100 µM
- TGI (NCI-H460 lung): > 100 µM
- TGI (NCI-H522 lung): > 100 µM
- TGI (OVCAR-3 ovarian): > 100 µM
- TGI (OVCAR-4 ovarian): > 100 µM
- TGI (OVCAR-5 ovarian): > 100 µM
- TGI (OVCAR-8 ovarian): > 100 µM
- TGI (RPMI-8226 leukemia): 36.9 µM
- TGI (RXF 393 renal): > 100 µM
- TGI (RXF-631 renal): > 100 µM
- TGI (SF-268 CNS): > 100 µM
- TGI (SF-295 CNS): > 100 µM
- TGI (SF-539 CNS): > 100 µM
- TGI (SK-MEL-2 melanoma): > 100 µM
- TGI (SK-MEL-28 melanoma): > 100 µM
- TGI (SK-MEL-5 melanoma): > 100 µM
- TGI (SK-OV-3 ovarian): > 100 µM
- TGI (SN12C renal): > 100 µM
- TGI (SNB-19 CNS): > 100 µM
- TGI (SNB-75 CNS): > 100 µM
- TGI (SNB-78 CNS): > 100 µM
- TGI (SR leukemia): 69.8 µM
- TGI (SW-620 colon): > 100 µM
- TGI (U251 CNS): > 100 µM
- TGI (UACC-257 melanoma): > 100 µM
- TGI (UACC-62 melanoma): > 100 µM
- TGI (UO-31 renal): > 100 µM

Compound: CC12OC3(O)C4C5CC(C6C5C3C61)C42 (stereo not given)
- TGI (786-0 renal): > 100 µM
- TGI (A549 NSCLC): > 100 µM
- TGI (ACHN renal): > 100 µM
- TGI (CAKI-1 renal): > 100 µM
- TGI (CCRF-CEM leukemia): > 100 µM
- TGI (COLO 205 colon): > 100 µM
- TGI (DLD-1 colon): > 100 µM
- TGI (DMS 114 small cell lung): > 100 µM
- TGI (DMS 273 small cell lung): > 100 µM
- TGI (HCC-2998 colon): > 100 µM
- TGI (HCT-116 colon): > 100 µM
- TGI (HCT-15 colon): > 100 µM
- TGI (HL-60(TB) leukemia): > 100 µM
- TGI (HOP-18 NSCLC): > 100 µM
- TGI (HOP-62 NSCLC): > 100 µM
- TGI (K-562 leukemia): > 100 µM
- TGI (KM12 colon): > 100 µM
- TGI (KM20L2 colon): > 100 µM
- TGI (LXFL 529 NSCLC): 53.1 µM
- TGI (M14 melanoma): > 100 µM
- TGI (M19-MEL melanoma): > 100 µM
- TGI (MALME-3M melanoma): > 100 µM
- TGI (MOLT-4 leukemia): > 100 µM
- TGI (NCI-H226 lung): > 100 µM
- TGI (NCI-H522 lung): > 100 µM
- TGI (OVCAR-4 ovarian): > 100 µM
- TGI (OVCAR-8 ovarian): > 100 µM
- TGI (RPMI-8226 leukemia): > 100 µM
- TGI (RXF 393 renal): > 100 µM
- TGI (RXF-631 renal): > 100 µM
- TGI (SF-268 CNS): > 100 µM
- TGI (SF-539 CNS): > 100 µM
- TGI (SK-MEL-2 melanoma): > 100 µM
- TGI (SK-MEL-28 melanoma): > 100 µM
- TGI (SK-OV-3 ovarian): > 100 µM
- TGI (SN12C renal): > 100 µM
- TGI (SNB-19 CNS): > 100 µM
- TGI (SNB-75 CNS): > 100 µM
- TGI (SNB-78 CNS): > 100 µM
- TGI (SR leukemia): > 100 µM
- TGI (SW-620 colon): > 100 µM
- TGI (TK-10 renal): > 100 µM
- TGI (U251 CNS): > 100 µM
- TGI (UACC-257 melanoma): > 100 µM
- TGI (UACC-62 melanoma): > 100 µM
- TGI (UO-31 renal): > 100 µM

Compound: COC(=O)C(Cc1c[nH]c2ccccc12)NC(=O)C(Cc1c[nH]c2ccccc12)NC(=O)OCc1ccccc1 (stereo not given)
- TGI (786-0 renal): 29.7 µM
- TGI (A498 renal): > 100 µM
- TGI (A549 NSCLC): 33 µM
- TGI (ACHN renal): 39.2 µM
- TGI (CAKI-1 renal): 40 µM
- TGI (CCRF-CEM leukemia): 61.3 µM
- TGI (COLO 205 colon): 30.6 µM
- TGI (DLD-1 colon): 32.7 µM
- TGI (DMS 114 small cell lung): 33.5 µM
- TGI (DMS 273 small cell lung): 29.8 µM
- TGI (EKVX NSCLC): 33.5 µM
- TGI (HCC-2998 colon): 31.6 µM
- TGI (HCT-116 colon): 32.4 µM
- TGI (HCT-15 colon): 31.3 µM
- TGI (HL-60(TB) leukemia): 48.7 µM
- TGI (HOP-62 NSCLC): 37.6 µM
- TGI (HOP-92 NSCLC): 48.6 µM
- TGI (HT29 colon): 34.7 µM
- TGI (IGROV1 ovarian): 36.6 µM
- TGI (K-562 leukemia): 56.6 µM
- TGI (KM12 colon): 33.5 µM
- TGI (KM20L2 colon): 32.2 µM
- TGI (LOX IMVI melanoma): 32.2 µM
- TGI (LXFL 529 NSCLC): 31.2 µM
- TGI (M14 melanoma): 38 µM
- TGI (M19-MEL melanoma): 32.4 µM
- TGI (MALME-3M melanoma): > 100 µM
- TGI (NCI-H226 lung): 40.3 µM
- TGI (NCI-H23 lung): 32.2 µM
- TGI (NCI-H460 lung): 32 µM
- TGI (NCI-H522 lung): 32.2 µM
- TGI (OVCAR-3 ovarian): 29 µM
- TGI (OVCAR-4 ovarian): 30.1 µM
- TGI (OVCAR-5 ovarian): 31.5 µM
- TGI (OVCAR-8 ovarian): 31.7 µM
- TGI (RPMI-8226 leukemia): 34.6 µM
- TGI (RXF 393 renal): 35.1 µM
- TGI (RXF-631 renal): 51.1 µM
- TGI (SF-268 CNS): 34.6 µM
- TGI (SF-295 CNS): 31.9 µM
- TGI (SF-539 CNS): 30.4 µM
- TGI (SK-MEL-28 melanoma): 31.8 µM
- TGI (SK-MEL-5 melanoma): 82.2 µM
- TGI (SK-OV-3 ovarian): 34.3 µM
- TGI (SN12C renal): 30.9 µM
- TGI (SNB-19 CNS): 31.6 µM
- TGI (SNB-75 CNS): 39.9 µM
- TGI (SNB-78 CNS): 60.2 µM
- TGI (SW-620 colon): 31.3 µM
- TGI (TK-10 renal): 41.4 µM
- TGI (U251 CNS): 30.6 µM
- TGI (UACC-257 melanoma): > 100 µM
- TGI (UACC-62 melanoma): 33.4 µM
- TGI (UO-31 renal): 44 µM
- TGI (XF 498 CNS): 30.7 µM
